Where two headings read alike, the source gives them in different places.
How the values were obtained:
ATRA 4-hydroxylase = ATRA 4-hydroxylase (Mesocricetus auratus, UniProt A0A1U7QD41); assay: Hamster liver microsome assay of ATRA metabolism (ATRA 4-hydroxylase inhibition); assay type: biochemical; details: hamster liver microsomes
Experimental: Washed hamster liver microsomes were prepared as follows: Livers are removed from sacrificed animals, rinsed in ice-cold 0.9% NaCl solution and homogenized in a 3-fold volume of 0.25 M sucrose-0.05 M Tris-HCl (pH 7.4) using a blender. Microsomes are isolated by differential centrifugation (10,000×g, 20 minutes; 100,000×g, 60 minutes; 4° C.) using a well-known technique (Van Wauwe, J.; Van Nyen, G.; Coene, M-C.; Stoppie, P.; Cols, W.; Goossens, J, Borghgraef, P.; Janssen, P A J, Liarozole, an Inhibitor of Retinoic Acid Metabolism, Exerts Retinoid-Mimetic Effects, In Vivo. J. Pharmacol. Expt. Ther. 261, 773-779, 1992). The microsomes are suspended in PBS buffer (pH 7.4), in 1 ml aliquots and stored at −70° C. until required.
The standard reaction mixture (total of 400 μl) is composed of assay buffer, 140 μl; microsomes, 100 μl ([…]); NADPH, 100 μl ([…]); and a C-4 substituted ATRA analog dissolved in DMSO, 40 μl. After a 3 minute preincubation at 37° C., the reaction is initiated by addition of 20 μl of [11,12-^3H]-ATRA (20 μCi/ml). The incubation is carried out for 30 minutes under oxygen with shaking in a water bath at 37° C. The reaction is stopped by acidification with 0.1 ml formic acid, and the samples are extracted (×2) with EtOAc (2 ml) containing 0.05% butylated hydroxyanisole. The combined organic extracts are evaporated in vacuo, dissolved in 200 μl of the mobile phase for HPLC. An aliquot is analyzed for tritium content by liquid scintillation spectrometry. Usually, >95% of the added radioactivity is recovered. Most of the samples (150 μl) are analyzed on a 10 (m C18 Bondapak column (3.9×300 mm, Millipore), eluted with a multi-linear gradient solvent system: i, MeOH—H2O—HCOOH (60:40:0.05) containing 10 mM ammonium acetate (100 (0%) and ii, MeOH (0 (100%) at 2 ml/min. The radioactivity is measured by an on-line radio-detector. The Rts of ATRA, 4-hydroxy-ATRA and 4-oxo-ATRA are determined by UV absorbance at 350 nm in separate cuvettes. Typically, 80±5% of [11, 12-^3H]ATRA is converted into the metabolites.
The C-4 substituted ATRA analogs are tested at two concentrations, 500 and 1000 nM. IC50 and Ki values are determined.
Incubation of [11,12-^3]ATRA with hamster liver microsomes as described above results in the formation of polar metabolites, including 4-hydroxy-ATRA and 4-oxo-ATRA (see FIG. 7A). […] VN/14-1RA inhibits cytochrome P450-dependent metabolism of ATRA.
Table 2B represents repeated testing of some of the compounds in Table 2A and testing on additional compounds. For comparison, the IC50 values of liarozole and ketoconazole (known inhibitors of ATRA 4-hydroxylase) were also determined.

LNCaP cells = assay: LNCaP cell growth, compound in combination with ATRA; assay type: cell-based, human; details: for inhibition of proliferation of LNCaP cells: 10^−8 to 10^−5 M in combination with 10^−5 M ATRA, compared with no drug or ATRA only; for concentration(s) that prevent the LNCaP cells from increasing in number: in combination with 10^−5 M ATRA, tested 10^−8 to 10^−5 M
Experimental: LNCaP cells are androgen-dependent cell cultures. PC-3 cells are androgen independent cell culture.
LNCaP cells are transferred into ATRA-free medium 3 days prior to start of experiments. Medium consist of phenol red-free IMEM supplemented with 5% FBS and 1% P/S. Cell are then plated into 24-well culture plates (15000 cells per well) in 1 mL of same medium. After a 24-hour attachment period, the vehicle (ethanol) or ATRA (10^−5 M) alone or ATRA in combination with a novel compound at a range of concentrations are added to triplicate wells. Medium/treatments are changed every 3 days. After 9 days of treatment, cells are removed from the wells with typsin/EDTA and counted in a Coulter counter. Using well-known methods (Wouters W, Van Dun J, Dillen A, Coene M.-C, Cools W and De Coster R, Effects of liarozole, a new antitumoral compound an retinoic acid-induced inhibition of cell growth and on retinoic acid metabolism in MCF-7 breast cancer cells, Cancer Res 52: 2841-2846, 1992), one determines the inhibitory effect of the novel compounds on LNCaP cells grown with ATRA.

[1] = tested on: ATRA 4-hydroxylase activity in LNCaP cells; assay: Induction of ATRA metabolism in LNCaP cells; assay type: cell-based, human; details: LNCaP cells preincubated with 1.0 μM ATRA, 0.8 μM [3H]ATRA
Experimental: FIG. 17: Metabolism of 0.8 μM 3H-ATRA Following Induction with 1 μM ATRA in LNCaP Cells.
The potential of these cell lines to metabolize ATRA was investigated. […] LNCaP cells were preincubated with 1.0 μM ATRA for different time periods up to 48 hour. Following preincubation, ATRA metabolism was determined using 0.8 μM [11,12-^3H]ATRA. Induction of 4-hydroxylase activity ([^3H]ATRA metabolism was time-dependent with a fast onset and maximal induction achieved after a preincubation period of 18 hour (FIG. 17).

PC-3 tumors = assay: Growth of PC-3 tumors in male nude mice; assay type: in vivo; details: PC-3 xenografts
Experimental: FIG. 20: Effect of ATRA and VN/50A-1 on PC 3 Tumor Volumes in Male Nude Mice
The effects of VN/50A-1 on tumor growth was determined in mouse xenografts and compared to ATRA as the reference treatment (FIG. 20). Mice were grouped 35 days after cell inoculation when measurable tumor volume was approximately 500 mm^3. Total tumor volume in the control mice increased 5.4-fold over 7 weeks and tumor volume in the mice treated with ATRA increased by 3.2-fold (41% reduction compared with control). In the mice treated with VN/50A-1, tumor volume increased by 3.5-fold, which was 38% reduction versus control mice, which correlated well with accumulation of ATRA in plasma and in tumors. […] VN/50A-1 is completely eliminated from plasma within 3 hour of administration to mice (see FIG. 18). The inventive compounds with longer half-lives will have favorable bioavailability and are expected to be more efficacious.

CYP19 (aromatase) = target: T1, CYP19 (aromatase) (Homo sapiens, UniProt P11511); assay: Selectivity: effect on CYP19 (aromatase); assay type: biochemical; details: concentration as high as 5 μM
T1 sequence (P11511 1-503): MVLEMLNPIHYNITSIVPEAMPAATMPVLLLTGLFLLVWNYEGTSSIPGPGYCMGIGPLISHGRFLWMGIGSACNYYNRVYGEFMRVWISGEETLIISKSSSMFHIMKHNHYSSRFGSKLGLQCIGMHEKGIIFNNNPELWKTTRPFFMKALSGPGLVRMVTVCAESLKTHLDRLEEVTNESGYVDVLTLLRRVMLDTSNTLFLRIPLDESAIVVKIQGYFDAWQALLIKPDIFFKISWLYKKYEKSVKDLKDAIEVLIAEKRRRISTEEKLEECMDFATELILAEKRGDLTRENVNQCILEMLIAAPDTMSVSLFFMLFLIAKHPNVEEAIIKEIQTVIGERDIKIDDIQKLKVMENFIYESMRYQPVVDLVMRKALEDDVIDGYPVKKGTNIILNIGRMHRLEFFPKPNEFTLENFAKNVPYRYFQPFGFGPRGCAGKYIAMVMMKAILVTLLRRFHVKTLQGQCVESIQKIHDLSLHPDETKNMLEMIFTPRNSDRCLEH
Experimental: (§1) The selectivity of the compounds of the present invention towards ATRA-4-hydroxylase was tested by measuring the effect on the key enzymes in the biosynthesis of estradiol and dehydroepiandrosterone, CYP19 (aromatase) and CYP17 (17-lyase), respectively.

CYP17 (17-lyase) = target: T2, CYP17 (17-lyase) (Homo sapiens, UniProt P05093); assay: Selectivity: effect on CYP17 (17-lyase); assay type: biochemical; details: concentration as high as 5 μM
T2 sequence (P05093 1-508): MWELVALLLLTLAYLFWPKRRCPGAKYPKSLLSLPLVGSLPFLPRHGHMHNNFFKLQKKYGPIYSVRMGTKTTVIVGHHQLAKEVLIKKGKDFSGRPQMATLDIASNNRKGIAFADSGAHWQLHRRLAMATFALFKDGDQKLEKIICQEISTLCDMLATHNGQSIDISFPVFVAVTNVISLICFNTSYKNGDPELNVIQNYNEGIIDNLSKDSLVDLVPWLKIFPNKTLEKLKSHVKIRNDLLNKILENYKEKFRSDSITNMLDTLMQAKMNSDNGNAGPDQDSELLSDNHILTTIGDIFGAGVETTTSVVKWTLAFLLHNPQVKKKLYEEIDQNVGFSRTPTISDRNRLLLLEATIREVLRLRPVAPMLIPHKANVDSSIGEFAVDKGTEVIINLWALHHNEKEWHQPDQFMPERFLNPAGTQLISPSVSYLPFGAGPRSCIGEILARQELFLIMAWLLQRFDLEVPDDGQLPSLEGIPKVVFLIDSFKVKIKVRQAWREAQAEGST
Experimental: as §1

[2] = Effect of VN/65-4 on plasma elimination of ATRA; assay type: in vivo; details: mice, VN/65-4 10 mg/kg s.c. one hour before ATRA 1.0 mg/kg s.c.
Experimental: FIG. 19: Plasma Concentration of ATRA (1 mg/kg) After a Dose of 10 mg/kg body weight of VN/65-4.
To determine the ability of VN/65-4 to delay the velocity of plasma elimination of ATRA, mice were treated s.c. with VN/65-4 (10 mg/kg). One hour later, the mice were administered s.c. ATRA (1.0 mg/kg) and sacrificed at various time points. […] From these experiments it is believed that it is possible to improve ATRA efficacy by reducing its enhanced metabolism to increase endogenous levels.

[3] = Pharmacokinetic studies in mice (plasma levels by HPLC); assay type: in vivo; details: mice, 10 mg/kg s.c.
Experimental: FIG. 18: Plasma Levels in Balb/c Mice Following Dose of 10 mg/kg body weight Given s/c.
Pharmacokinetic studies of VN/65-4 and VN/66-1 were measured in mice and were compared to VN/14-1 and VN/50A-1. Mice were dosed s.c. at 10 mg/kg using a vehicle, 45% β-cyclodextrin in water, and plasma levels were measured by HPLC. […] The results are summarized in Table 3 below and the profiles in FIG. 18.

[4] = Table 2A, initial testing, read-out: IC50 Value
[5] = Table 2B, repeated testing and additional compounds, read-out: IC50 Value, Inhibition of ATRA 4-Hydroxylase

Sequence of ATRA 4-hydroxylase (A0A1U7QD41 entry or part of it): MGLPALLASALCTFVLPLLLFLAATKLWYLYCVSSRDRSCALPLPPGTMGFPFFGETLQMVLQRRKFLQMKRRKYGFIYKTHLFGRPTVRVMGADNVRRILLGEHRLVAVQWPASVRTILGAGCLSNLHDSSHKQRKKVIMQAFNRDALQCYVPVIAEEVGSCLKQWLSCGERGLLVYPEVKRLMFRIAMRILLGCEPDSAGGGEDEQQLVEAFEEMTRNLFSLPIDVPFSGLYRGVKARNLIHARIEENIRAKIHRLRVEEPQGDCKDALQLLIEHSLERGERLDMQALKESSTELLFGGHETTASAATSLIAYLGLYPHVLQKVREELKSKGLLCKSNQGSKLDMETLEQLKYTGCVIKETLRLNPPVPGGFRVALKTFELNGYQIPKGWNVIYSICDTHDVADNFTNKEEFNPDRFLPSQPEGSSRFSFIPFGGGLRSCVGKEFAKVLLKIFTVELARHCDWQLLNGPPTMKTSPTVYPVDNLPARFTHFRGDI

Row | IC50 (ATRA 4-hydroxylase; [4]) | IC50 (ATRA 4-hydroxylase; [5]) | SMILES | inhibition of proliferation of LNCaP cells (LNCaP cells) | concentration(s) that prevent the LNCaP cells from increasing in number (LNCaP cells) | further results
1 | 680 ± 3 nM | 1 ± 0.05 nM | COC(=O)C=C(C)C=CC=C(C)C=CC1=C(C)C(n2cncn2)CCC1(C)C (racemic) [VN/13-1, (±)-4-(1H-1,2,4-triazol-1-yl)methyl retinoate] | – | – | –
2 | 1620 nM | 25 ± 0.5 nM | CC1=C(/C=C/C(C)=C/C=C/C(C)=C/C(=O)O)C(C)(C)CCC1n1cnnc1 (racemic) [VN/17-1] | inhibit the proliferation of LNCaP cells better than no drug or ATRA only | All concentrations | –
3 | 880 ± 8 nM | 5 ± 0.25 nM | CC1=C(/C=C/C(C)=C/C=C/C(C)=C/C(=O)O)C(C)(C)CCC1n1cncn1 (racemic) [VN/16-1, (±)-4-(1H-1,2,4-triazol-1-yl)retinoic acid] | inhibit the proliferation of LNCaP cells better than no drug or ATRA only | 10^−5 M | –

Continued, compound first:

Row | SMILES | IC50 (ATRA 4-hydroxylase; [4]) | IC50 (ATRA 4-hydroxylase; [5]) | inhibition of proliferation of LNCaP cells (LNCaP cells) | concentration(s) that prevent the LNCaP cells from increasing in number (LNCaP cells) | further results
4 | CC1=C(/C=C/C(C)=C/C=C/C(C)=C/C(=O)O)C(C)(C)CCC1 [ATRA, All-trans retinoic acid, reference compound] | – | – | – | – | preincubation period for maximal induction of 4-hydroxylase activity [1]: 18 h; tumor weights versus control mice (PC-3 tumors): significantly (P<0.05) lower; reduction of tumor volume compared with control (PC-3 tumors; over 7 weeks): 41%; increase of total tumor volume (PC-3 tumors; over 7 weeks, control 5.4-fold): 3.2 fold
5 | Clc1cccc(C(c2ccc3[nH]cnc3c2)n2ccnc2)c1 (stereo not drawn) [Liarozole, reference compound] | – | – | inhibit the proliferation of LNCaP cells better than no drug or ATRA only | 10^−5 M | –
6 | COC(=O)C=C(C)C=CC=C(C)C=CC1=C(C)C(n2cnnc2)CCC1(C)C (racemic) [VN/13-2, (±)-4-(4H-1,2,4-triazole-1-yl)methyl retinoate] | – | 10 ± 0.3 nM | – | – | –
7 | COC(=O)C=C(C)C=CC=C(C)C=CC1=C(C)C(n2ccnc2)CCC1(C)C (mixture of isomers) [VN/65-4, (±)-4-(1H-imidazol-1-yl)-13-cis-methylretinoate] | – | – | – | – | inhibition of CYP19 (aromatase) (CYP19 (aromatase)): barely inhibited; inhibition of CYP17 (17-lyase) (CYP17 (17-lyase)): barely inhibited; rate of plasma elimination of ATRA [2]: delayed the rate of ATRA elimination significantly; in vivo conversion to corresponding acid [3]: rapidly and completely converted to corresponding acid

— US20120122908A1, “Novel C-4 Substituted Retinoids” (University of Maryland, priority 2000, published 2012)
